# Data: patent publication US9198886B2, “Use of 2,5-dihydroxybenzene for the treatment of ocular diseases” (priority 2006, dated 2015)
# Columns and labels:
# Nakagawa angioblastoma = assay: Topical cream in a child with Nakagawa angioblastoma (hemangioblastoma); format: in vivo, human; settings: cream 2.5%, topical twice a day, 1 month, one child
# From the text: Photographs showing the effects of a topical treatment with a cream comprising 2,5-dihydroxybenzenesulfonic (DHBS) in a child suffering from Nakagawa angioblastoma.
# The cream comprising 2,5-dihydroxybenzene sulfonic (2.5%) was topically applied twice a day during 1 month on the face of the child suffering from Nakagawa angioblastoma.
# [1] = target: fibroblast growth factor-1 (FGF-1) (Homo sapiens, UniProt P05230); assay: Co-crystal structure with fibroblast growth factor-1; format: binding
# From the text: (§1) FIG. 24. 2-acetoxy-5-hydroxybenzenesulfonic acid co-crystallized with fibroblast growth factor-1. […] The compound occupies a place that is very close to that described occupied by 2,5-dihydroxybenzenesulfonic acid, the aromatic ring of which forms a cation-π bond with the N^ε group of lysine 132, which is marked in panel A as reference. […] In panels A and B, the protein surface is colored according to its electrostatic potential (light grey: negative charge; dark grey: positive charge; white: lack of charge).
# as §1, with “25. 5-acetoxy-2-hydroxybenzenesulfonic” for “24. 2-acetoxy-5-hydroxybenzenesulfonic”
# as §1, with “26. 2,5-diacetoxybenzenesulfonic” for “24. 2-acetoxy-5-hydroxybenzenesulfonic”
# Based on the crystal diffraction of the FGF-1:2-acetoxy-5-hydroxybenzene sulfonic acid, FGF-1:5-acetoxy-2-hydroxybenzene sulfonic acid and FGF-1:2,5-diacetoxybenzene sulfonic acid complexes, the structures of the complexes were calculated and represented. FIGS. 24, 25 and 26, which show the surface of the dyed protein according to its electrostatic potential (light grey: negative charge; dark grey: positive charge; white: lack of charge), show the manner in which 2-acetoxy-5-hydroxybenzene sulfonic acid, 5-acetoxy-2-hydroxybenzene sulfonic acid and 2,5-diacetoxybenzene sulfonic acid interact, respectively, with FGF-1.
# [2] = tested on: intestinal inflammatory disease induced by dextran sulfate sodium; assay: DSS-induced intestinal inflammatory disease in mice; format: in vivo, mice of strain C57BL/6J-664
# Method: (§2) The mice were subject to two 7-day cycles of exposure to dextran sulfate sodium (DSS) (from day 1 to 7 and from day 14 to 21) in the drinking water separated by 7 days in which regular water was provided (from 7 to 14). One group was treated with vehicle (0.9% NaCl), another with Solu-Medrol (10 mg/kg/day i.m.), and the other two groups with potassium 2,5-diacetoxybenzene sulfonate (DABS), one of them with 100 mg/kg/day i.p. and the other with 125 mg/kg/day, orally (p.o.). The body weight was normalized on day 0. Data are expressed as the mean+SD of the percentage of the basal weight (day 0) of 10 mice per group.
# as §2, with “(p.o.)” for “(p.o.). The body weight was normalized on day 0.”, “mean±SD” for “mean+SD”, “clinical score” for “percentage”, “disease continuously obtained from” for “basal weight (day 0) of”, “per each” for “per”
# The induction of the intestinal inflammatory disease described below is a representative model for the evaluation of therapeutic strategies to treat Crohn's disease and ulcerative colitis. 7-8 week old female mice of strain C57BL/6J-664 were used. The intestinal inflammatory disease (HD) was induced by feeding the mice with 3% dextran sulfate sodium (DSS; MW 40,000) dissolved in drinking water in 2 cycles. Each cycle consisted of 7 days with 3% DSS in the drinking water separated by 7 days with regular water. A daily clinical evaluation of the animals was performed in which the body weight, the consistency of the faeces and the presence of blood in the faeces were determined. Thus, the validated score of the clinical activity of the disease was evaluated with a 0 to 6 scale, considering the following parameters: consistency of the faeces, presence or absence of fecal blood and loss of weight.
# At the end of the first cycle of exposure to DSS, the mice were divided into the following treatment groups: a first group was administered intraperitoneal (i.p) injections of vehicle (0.9% NaCl). Another group received intramuscular injections of Solu-Medrol, a standard IID treatment, at a dose of 10 mg/kg/day. A third group was administered i.p. injections of potassium 2,5-diacetroxybenzene sulfonate (DABS, 100 mg/kg/day). The last group was treated orally with 125 mg/kg day of DABS.
# Sequence of fibroblast growth factor-1 (FGF-1) (P05230 whole entry, species assumed): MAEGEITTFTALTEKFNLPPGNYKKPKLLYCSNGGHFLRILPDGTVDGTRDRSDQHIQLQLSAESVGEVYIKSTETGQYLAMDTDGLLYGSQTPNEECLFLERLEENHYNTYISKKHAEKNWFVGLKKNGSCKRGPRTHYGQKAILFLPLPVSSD
SMILES,coloration of the hemangioblastoma lesion (Nakagawa angioblastoma),binding site on FGF-1 ([1]; crystal diffraction of the complex),"acetoxyl groups of the compound when bound to FGF-1 ([1]; crystal diffraction, electron density contoured at 1σ)",disease clinical score ([2]; 100 mg/kg/day i.p.),disease clinical score ([2]; 125 mg/kg/day orally),"loss of body weight produced by two cycles of DSS ([2]; DABS 100 mg/kg/day i.p. or 125 mg/kg/day p.o., Solu-Medrol 10 mg/kg/day i.m., vs vehicle)","efficacy compared with standard treatment Solu-Medrol ([2]; body weight and clinical score, Solu-Medrol 10 mg/kg/day i.m.)"
"O=S(=O)(O)c1cc(O)ccc1O [DHBS, 2,5-dihydroxybenzene sulfonic acid]",reduction in the intensity of the reddish coloration,,,,,,
"CC(=O)Oc1ccc(OC(C)=O)c(S(=O)(=O)[O-])c1.[K+] [DABS, potassium 2,5-diacetoxybenzene sulfonate]",,"very close to the one that has been described occupied by 2,5-dihydroxybenzene sulfonic acid",conserve the acetoxyl groups,reduced,reduced,reduced,not lower (in some points it is higher)
